Test results published in patent US20160256421A1, “COMPOSITION CONTAINING EUGENOL AS ACTIVE INGREDIENT FOR PREVENTING OR TREATING ATOPIC DERMATITIS” (SEOUL NATIONAL UNIVERSITY R&DB FOUNDATION, priority 2013, published 2016).

Assays:
[1] = tested on: histamine-induced pruritus; experiment: Scratch test, histamine-induced pruritus, simultaneous intradermal injection of compound; assay type: in vivo, mice; settings: 10 μM compound injected simultaneously with 500 μg/site histamine, 30 minutes, histamine only about 152, FIG. 11
Procedure: In order to confirm reactions to pruritus-inducing substances such as histamine or serotonin in the present invention, a behavior experiment was conducted. In order to induce scratching, histamine and serotonin which are known to induce itchy sensation in humans were used. Here, histamine or serotonin was diluted with sterilized saline solution. On the day before the experiment, experimental animals were anaesthetized by mixing zolitel and rompun at a ratio of 1:4 and injecting 1 mL/kg thereof, and hair on the nape areas of a 1.5 cm×1.5 cm square was removed using a clipper on the nape of experimental animals. On the day of the experiment, a box of 10 cm×20 cm×15 cm dimensions was produced and mice were stabilized for 30 minutes therein. Thereafter, 100 μL of solvents or the experimental substance was applied on the back of the neck of mice, and after 30 minutes, 50 μL of pruritus-inducing substances (500 μg/site of histamine or 10 μg/site of serotonin) was injected at the back of the neck of experimental animals via intradermal injection. Next, reactions of experimental animals were video-recorded for 30 minutes, and a scratch test was conducted by counting up and down of a hind paw of an experimental animal to the injected area in the back of the neck as one scratch. […]
As described in Experimental Example 4, in order to induce scratching, experimental animals in the control group were injected with 500 μg/site of histamine at the back of the neck via intradermal injection, and along with the histamine, the experimental group was simultaneously injected with 10 μM isoeugenol (mixture of cis and trans, 82 ng) and 10 μM methyleugenol (89 ng) as representative eugenol derivatives, as well as 10 μM eugenol (82 ng). Thereafter, the reactions of experimental animals were video-recorded for 30 minutes, and a scratch test was conducted by counting the action of going up and down of a hind paw of an experimental animal to the injected area in the back of the neck as one scratch.

[2] = tested on: serotonin-induced pruritus; experiment: Scratch test, serotonin-induced pruritus, cream applied; assay type: in vivo, mice; settings: serotonin 10 μg
Text: (§1) 7-week-old male C57/BL6 mice were used in the present experiment, and in order to produce atopic dermatitis models, 7-week-old male balb/c nude mice were purchased from Orient Bio (Korea) and used. The method described in the manuscript of Kuraishi et al., presented the original form of mouse models developed in the present invention (Kuraishi et al., 1995). The group consisting of male BL6/C57 mice weighing 20 g to 23 g was used in the experiment. The experiment proceeded after experimental animals were accustomed to the conventional environment of 23±2° C. and 55±15% humidity for 3 days, in which light was constrained from 8 pm to 8 am, and were given ad libitum access to food and water. In order to confirm reactions to pruritus-inducing substances such as histamine or serotonin in the present invention, a behavior experiment was conducted. In order to induce scratching, histamine and serotonin which are known to induce itchy sensation in humans were used. Here, histamine or serotonin was diluted with sterilized saline solution. […] Next, reactions of experimental animals were video-recorded for 30 minutes, and a scratch test was conducted by counting up and down of a hind paw of an experimental animal to the injected area in the back of the neck as one scratch. […]

[3] = cited from earlier work
[4] = tested on: heat pain (capsaicin receptors); experiment: Hargreaves test, acute heat pain reactions; assay type: in vivo, mice; settings: 3 wt % eugenol compared to the base cream
Procedure: In order to examine whether 3 wt % eugenol acts on capsaicin receptors and effects behavioral reactions to heat stimulation, Hargreaves test was conducted. With reference to Hargreaves et al. (1988), heat stimulation by light was delivered to a hind paw of a subject, and the corresponding avoidance reaction time was measured.

[5] = tested on: histamine-induced pruritus; experiment: Scratch test, histamine-induced pruritus, cream applied; assay type: in vivo, mice; settings: histamine 500 μg intradermal
Text: as §1

[6] = tested on: atopic dermatitis animal models (oxalozone-induced); experiment: Visual inspection of dermal recovery in atopic dermatitis animal models; assay type: in vivo, balb/c nude mice; settings: 200 μL of 3 wt % eugenol cream, same time of a day for a week, FIG. 2
Text: 7-week-old male C57/BL6 mice were used in the present experiment, and in order to produce atopic dermatitis models, 7-week-old male balb/c nude mice were purchased from Orient Bio (Korea) and used. The method described in the manuscript of Kuraishi et al., presented the original form of mouse models developed in the present invention (Kuraishi et al., 1995). The group consisting of male BL6/C57 mice weighing 20 g to 23 g was used in the experiment. The experiment proceeded after experimental animals were accustomed to the conventional environment of 23±2° C. and 55±15% humidity for 3 days, in which light was constrained from 8 pm to 8 am, and were given ad libitum access to food and water. Atopic dermatitis animal models were produced with reference to Hatano et al. (2011), and it is known that TRPV1 is mediated in the developmental mechanism. Particularly, balb/c nude mice were used to produce the atopic dermatitis animal models. In the first two days, 50 μL of 5% oxalozone was treated to sensitize the back of the neck of experimental animals, and a week of recovery followed. In the next 4 weeks, 60 μL of 0.5% oxalozone was treated for a total of 12 times to complete atopic dermatitis animal models (FIG. 1). […]

TRPV1 = TRPV1 (Homo sapiens, UniProt Q8NER1); settings: high concentration; cited from earlier work
mechanical pain = experiment: von-Frey test, acute mechanical pain reactions; assay type: in vivo, mice; settings: 3 wt % eugenol
Procedure: However, effects of blocking pain by blocking Na ion channels are induced by blocking all the dermal sensory information and thus are non-specific phenomena. Therefore, von-Frey test was conducted to examine whether antipruritic effects are induced by reduced excitation via blocking voltage-dependent Na ion channels of sensory nerves by confirming whether eugenol at a pruritus-effective concentration blocks pain reactions. With reference to Chaplan et al. (1994), hind paws of experimental animals were stimulated with von-Frey filaments (0.02 g to 4 g), and 50% avoidance reactions were measured. Through this process, avoidance reactions to mechanical stimulations were measured and assessed as a reaction threshold.

Chain of TRPV1 (Q8NER1 whole entry, species assumed): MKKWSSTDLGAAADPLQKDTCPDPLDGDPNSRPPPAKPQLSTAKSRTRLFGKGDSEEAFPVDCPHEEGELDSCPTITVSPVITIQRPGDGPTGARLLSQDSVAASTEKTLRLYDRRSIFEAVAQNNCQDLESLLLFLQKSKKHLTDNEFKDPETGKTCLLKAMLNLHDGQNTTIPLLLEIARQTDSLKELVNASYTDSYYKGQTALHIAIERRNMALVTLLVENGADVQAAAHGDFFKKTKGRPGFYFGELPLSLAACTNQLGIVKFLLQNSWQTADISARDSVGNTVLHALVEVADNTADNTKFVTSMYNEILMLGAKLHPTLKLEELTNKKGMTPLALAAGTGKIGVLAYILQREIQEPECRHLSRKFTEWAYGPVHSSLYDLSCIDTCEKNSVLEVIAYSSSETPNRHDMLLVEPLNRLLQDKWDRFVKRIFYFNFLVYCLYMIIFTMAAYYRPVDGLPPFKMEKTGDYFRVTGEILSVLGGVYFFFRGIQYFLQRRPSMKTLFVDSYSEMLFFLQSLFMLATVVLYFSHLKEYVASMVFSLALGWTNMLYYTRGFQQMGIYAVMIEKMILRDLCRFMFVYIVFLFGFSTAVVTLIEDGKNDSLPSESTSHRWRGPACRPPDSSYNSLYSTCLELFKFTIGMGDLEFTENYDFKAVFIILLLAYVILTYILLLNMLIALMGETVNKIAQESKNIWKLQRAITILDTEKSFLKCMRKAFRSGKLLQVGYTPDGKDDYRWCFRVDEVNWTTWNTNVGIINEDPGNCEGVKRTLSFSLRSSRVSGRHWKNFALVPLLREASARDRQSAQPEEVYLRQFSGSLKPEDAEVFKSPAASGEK

In the case of `C=CCc1ccc(OC)c(OC)c1` [methyleugenol], the “number of scratching on average” value [1] is reported as 99 times.
For `CC=Cc1ccc(O)c(OC)c1` (racemic) [isoeugenol, (E) or (Z)-2-methoxy-4-(prop-1-enyl)phenol], the “number of scratching on average” value [1] was “about 80 times”.
With `C=CCc1ccc(O)c(OC)c1` [eugenol, 4-allyl-2-methoxyphenol] the “antipruritic effects on serotonin-induced pruritus” value ([2]; 100 μL of 3 wt % eugenol) was “antipruritic effects were not observed”, the “antipruritic effects on serotonin-induced pruritus” value ([2]; 100 μL of 10 wt % eugenol) was “showed blocking of serotonin-induced pruritus” and the “number of scratching on average” value [1] was “about 45 times”. For the same molecule, the “solubility in organic solvents” value [3] was “high”, the solubility in water [3] was “low” and the “avoidance reaction in response to heat pain (Hargreaves)” value [4] was “significantly increased avoidance reaction”. The “reduction of pruritus reactions” value ([5]; 3 wt % eugenol cream, 30 minutes) was “at least 40%”, the “blocking effects on histamine-dependent pruritus” value ([5]; 10 wt % eugenol cream) was “increased blocking effects on histamine-dependent pruritus” and the “dermal recovery from atopic dermatitis (visual inspection)” value [6] was “recovered skin to the normal level”. For the same molecule, the “concentration at which TRPV1 is activated” value (TRPV1) was no less than 1 mM and the “mechanical pain, 50% avoidance reaction threshold (von-Frey)” value (mechanical pain) was “did not show a significant difference”.
